Measurements: ChEMBL document CHEMBL1201862, “PubChem BioAssay data set” (2004)
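A five-concentration, 48-hour dose response in 96-well plates underlies each endpoint, interpolated linearly between surrounding concentrations. Here, GI50 denotes the concentration required for 50% inhibition of growth.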 Activity calls are given as the source filed them. Cut-off read from the data, not from the text of the source: active = GI50 up to about 1.1 µM and inactive = higher.

What was measured:
Test in all cases: NCI-60 cell line screen, 48 h
A549 = tested on: A549
ACHN = tested on: ACHN
CAKI-1 = tested on: CAKI-1
CCRF-CEM = tested on: CCRF-CEM
COLO 205 = tested on: COLO 205
DLD-1 = tested on: DLD-1
DMS-114 = tested on: DMS-114
DMS-273 = tested on: DMS-273
EKVX = tested on: EKVX
HCC 2998 = tested on: HCC 2998
HCT-15 = tested on: HCT-15
HL-60 = tested on: HL-60
HOP-18 = tested on: HOP-18
HT-29 = tested on: HT-29
IGROV-1 = tested on: IGROV-1
K562 = tested on: K562
KM-20L2 = tested on: KM-20L2
KM12 = tested on: KM12
LOX IMVI = tested on: LOX IMVI
LXFL 529 = tested on: LXFL 529
M14 = tested on: M14
MOLT-4 = tested on: MOLT-4
Malme-3M = tested on: Malme-3M
NCI-H23 = tested on: NCI-H23
NCI-H522 = tested on: NCI-H522
OVCAR-4 = tested on: OVCAR-4
OVCAR-5 = tested on: OVCAR-5
OVCAR-8 = tested on: OVCAR-8
RPMI-8226 = tested on: RPMI-8226
RXF 393 = tested on: RXF 393
SF-268 = tested on: SF-268
SF-295 = tested on: SF-295
SF-539 = tested on: SF-539
SK-MEL-28 = tested on: SK-MEL-28
SK-MEL-2 = tested on: SK-MEL-2
SK-MEL-5 = tested on: SK-MEL-5
SK-OV-3 = tested on: SK-OV-3
SN12C = tested on: SN12C
SNB-19 = tested on: SNB-19
SNB-75 = tested on: SNB-75
SNB-78 = tested on: SNB-78
SW-620 = tested on: SW-620
TK-10 = tested on: TK-10
U-251 = tested on: U-251
UACC-257 = tested on: UACC-257
UACC-62 = tested on: UACC-62
UO-31 = tested on: UO-31
XF498 = tested on: XF498
HCT-116 = tested on: HCT-116
HOP-62 = tested on: HOP-62
M19-MEL = tested on: M19-MEL
NCI-H226 = tested on: NCI-H226
NCI-H460 = tested on: NCI-H460
OVCAR-3 = tested on: OVCAR-3
SR = tested on: SR
786-0 = tested on: 786-0
A498 = tested on: A498
HOP-92 = tested on: HOP-92
RXF 631 = tested on: RXF 631

Measured: GI50

NC1C=NNC1=O (stereo not given)
> 100 µM: HCT-15
active: HOP-18 < 0.01 µM
inactive: A549 > 100 µM | ACHN > 100 µM | CAKI-1 > 100 µM | CCRF-CEM > 100 µM | COLO 205 > 100 µM | DLD-1 > 100 µM | DMS-114 > 100 µM | DMS-273 > 100 µM | EKVX > 100 µM | HCC 2998 > 100 µM | HL-60 > 100 µM | HT-29 > 100 µM | IGROV-1 > 100 µM | K562 > 100 µM | KM-20L2 > 100 µM | KM12 > 100 µM | LOX IMVI > 100 µM | LXFL 529 > 100 µM | M14 > 100 µM | MOLT-4 > 100 µM | Malme-3M > 100 µM | NCI-H23 > 100 µM | NCI-H522 > 100 µM | OVCAR-4 > 100 µM | OVCAR-5 > 100 µM | OVCAR-8 > 100 µM | RPMI-8226 > 100 µM | RXF 393 > 100 µM | SF-268 > 100 µM | SF-295 > 100 µM | SF-539 > 100 µM | SK-MEL-28 > 100 µM | SK-MEL-2 > 100 µM | SK-MEL-5 > 100 µM | SK-OV-3 > 100 µM | SN12C > 100 µM | SNB-19 > 100 µM | SNB-75 > 100 µM | SNB-78 > 100 µM | SW-620 > 100 µM | TK-10 > 100 µM | U-251 > 100 µM | UACC-257 > 100 µM | UACC-62 > 100 µM | UO-31 > 100 µM | XF498 > 100 µM

N#CC(NC12CC3CC(CC(C3)C1)C2)c1ccccc1C(F)(F)F (stereo not given)
> 100 µM: HCT-15
inactive: A549 > 100 µM | ACHN > 100 µM | CAKI-1 > 100 µM | CCRF-CEM > 100 µM | COLO 205 > 100 µM | DLD-1 > 100 µM | DMS-114 > 100 µM | DMS-273 > 100 µM | EKVX > 100 µM | HCC 2998 > 100 µM | HCT-116 > 100 µM | HL-60 > 100 µM | HOP-18 > 100 µM | HOP-62 > 100 µM | HT-29 > 100 µM | K562 > 100 µM | KM-20L2 > 100 µM | KM12 > 100 µM | LOX IMVI > 100 µM | LXFL 529 > 100 µM | M14 > 100 µM | M19-MEL > 100 µM | MOLT-4 > 100 µM | Malme-3M > 100 µM | NCI-H226 > 100 µM | NCI-H23 > 100 µM | NCI-H460 > 100 µM | NCI-H522 > 100 µM | OVCAR-3 > 100 µM | OVCAR-4 > 100 µM | OVCAR-5 > 100 µM | OVCAR-8 > 100 µM | RPMI-8226 > 100 µM | RXF 393 > 100 µM | SF-268 > 100 µM | SF-539 > 100 µM | SK-MEL-28 > 100 µM | SK-MEL-2 > 100 µM | SK-MEL-5 > 100 µM | SN12C > 100 µM | SNB-19 > 100 µM | SR > 100 µM | SW-620 > 100 µM | TK-10 > 100 µM | UO-31 > 100 µM | XF498 > 100 µM

O=C1C=C(Nc2ccc(Cl)cc2Cl)c2ccccc2C1=O
inactive: 786-0 78.5 µM | A498 > 100 µM | A549 28.5 µM | ACHN 36.2 µM | CAKI-1 > 100 µM | CCRF-CEM 30.8 µM | COLO 205 > 100 µM | DLD-1 44.5 µM | DMS-114 23.6 µM | DMS-273 27.4 µM | EKVX > 100 µM | HCC 2998 54.6 µM | HCT-116 35 µM | HL-60 28.7 µM | HOP-62 30.5 µM | HOP-92 21.2 µM | HT-29 > 100 µM | IGROV-1 50.9 µM | K562 31.3 µM | KM-20L2 > 100 µM | KM12 66.5 µM | LXFL 529 27.2 µM | M14 21.3 µM | M19-MEL 13.5 µM | MOLT-4 88.1 µM | Malme-3M 24.9 µM | NCI-H226 28.5 µM | NCI-H23 21.7 µM | NCI-H460 26.1 µM | NCI-H522 29.8 µM | OVCAR-3 28.4 µM | OVCAR-4 87.9 µM | OVCAR-5 > 100 µM | OVCAR-8 80 µM | RPMI-8226 46.5 µM | RXF 393 38.3 µM | RXF 631 34.5 µM | SF-268 > 100 µM | SF-295 53.5 µM | SF-539 > 100 µM | SK-MEL-28 59.8 µM | SK-MEL-2 23.6 µM | SK-OV-3 99.1 µM | SN12C 57.1 µM | SNB-19 39.3 µM | SNB-75 22.4 µM | SNB-78 44.1 µM | SR 29.4 µM | SW-620 39.5 µM | TK-10 24.7 µM | U-251 29.4 µM | UACC-257 35 µM | UACC-62 16.5 µM | UO-31 43.1 µM
29.5 µM: HCT-15
